“Also recorded” adds a separate entry of the source.
Key:
[1] = target: T1, RHOJ and PAK1-PBD interaction (Homo sapiens, UniProt Q9H4E5); assay: CDC42 interaction assay (PAK1-PBD pull-down); format: cell-based; conditions: WM3248 cells; ARN22089 at 10 and 50 μM, lysates incubated with GTP; ARN12405 indicated doses (Fig S2B)
T1 construct: endogenous in cells; host or cells: WM3248 (or WM983B) melanoma cells; PAK1 PBD beads from Cell Biolabs kit
Experimental: (§1) 24 hours later the lysates from treated and untreated cells were unloaded of guanosine nucleotides and either loaded with GDP or GTPγS. […] Precipitated lysates were then immunoblotted with indicated antibodies.

[2] = target: T2, CDC42 and PAK1-PBD interaction (Homo sapiens, UniProt P60953); assay: CDC42 interaction assay (PAK1-PBD pull-down); format: cell-based; conditions: WM3248 cells; ARN22089 at 10 and 50 μM, lysates incubated with GTP; ARN12405 indicated doses (Fig S2B)
T2 construct: endogenous in cells; host or cells: WM3248 (or WM983B) melanoma cells; PAK1 PBD beads from Cell Biolabs kit
T2 sequence (P60953 1-188 limits assumed): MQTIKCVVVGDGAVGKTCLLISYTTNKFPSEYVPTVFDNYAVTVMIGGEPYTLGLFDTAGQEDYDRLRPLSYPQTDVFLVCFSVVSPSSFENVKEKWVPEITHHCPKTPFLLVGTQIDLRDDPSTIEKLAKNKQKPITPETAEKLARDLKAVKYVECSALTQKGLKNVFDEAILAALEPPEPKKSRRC
Experimental: as §1

WM3248 = assay: cells; conditions: Homo sapiens, WM3248, read-out: IC50 WM3248
Experimental: (§2) Cancer cell line viability assay was performed using a CellTiterGlo assay. Cells were cultured in their appropriate media and seeded in white multi-well plates. For the assays, cells were incubated with compound at 37°C overnight, and a CellTiterGlo assay was performed to quantify viable cells.

[3] = tested on: WM3248, SKMel3, A375, SW480, and SKM28; assay: cells; conditions: Homo sapiens, read-out: IC50 across cancer cell lines
Experimental: as §2

SKMel28 melanoma cells = assay: Cancer cell line viability assay (CellTiterGlo); format: cell-based, Human; conditions: for decrease of activity compared with the hit: SKM28 cells, versus ARN12405; for dose response in SKM28 cell lines: Figure S2F
A375 VMT = assay: Vascularized microtumor (VMT) assay; format: cell-based, Human; conditions: 2 μM
Experimental: (§3) Briefly, human endothelial colony-forming cell-derived endothelial cells (ECFC-EC) are isolated from cord blood via selection for the CD31 + cell population and cultured in EGM2 medium (Lonza). […] Cancer cells and LF are cultured in DMEM (Corning) containing 10% FBS (Gemini Bio). […] To load the microfluidic device, ECFC-EC and LF (both 8 × 10^6 cells/mL) and cancer cells (2.5 × 10^6 cells/mL) were resuspended in fibrinogen solution (10 mg/mL basal medium). The cell slurry was then mixed with 1 mL thrombin (3 U/mL) to catalyze gel solidification and quickly loaded into the tissue chambers of each VMT unit. […] All cells and VMTs are cultured in a 37°C, 20% O2, 5% O2 environment.
(§4) Fluorescence images were acquired with an Olympus IX70 inverted microscope using SPOT software (SPOT Imaging, Sterling Heights, Michigan). […] Each chamber was normalized to time 0 baseline.

[4] = tested on: VMOs (vessels, no tumor cells); assay: Vascularized micro-organ (VMO) assay; format: cell-based, Human; conditions: no tumor cells (Figure 4D)
Experimental: as §3, §4

T1 sequence (Q9H4E5 1-211 limits assumed): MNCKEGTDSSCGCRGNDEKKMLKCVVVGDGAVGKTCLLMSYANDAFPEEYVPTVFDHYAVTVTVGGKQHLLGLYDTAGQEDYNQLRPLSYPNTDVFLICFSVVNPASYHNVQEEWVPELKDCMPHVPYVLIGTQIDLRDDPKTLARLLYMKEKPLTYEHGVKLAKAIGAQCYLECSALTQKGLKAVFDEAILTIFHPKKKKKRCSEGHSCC

Clc1ccc(Nc2cc(-c3ccncc3)nc(C3CCCNC3)n2)cc1 (centres unmarked) [ARN12405]
inhibition of RHOJ - PAK1-PBD interaction [1]: inhibits RHOJ/CDC42-PAK interactions; also recorded: blocked the RHOJ/CDC42 PAK interaction
inhibition of CDC42 - PAK1-PBD interaction [2]: inhibits RHOJ/CDC42-PAK interactions; also recorded: blocked the RHOJ/CDC42 PAK interaction

Clc1ccc(Nc2cc(-c3ccccc3)nc(C3CCCNC3)n2)cc1 (centres unmarked) [ARN21698]
IC50 (WM3248): 8.42 µM
IC50 [3]: 6.3 to 10.9 µM

c1ccc(Nc2cc(-c3ccncc3)nc(C3CCCNC3)n2)cc1 (centres unmarked) [ARN21699]
decrease of activity compared with the hit (SKMel28 melanoma cells): 2 fold

Clc1cccc(Nc2cc(-c3ccncc3)nc(C3CCCNC3)n2)c1 (centres unmarked) [ARN21700]
IC50 (WM3248): 30.9 µM
decrease of activity compared with the hit (SKMel28 melanoma cells): 2 fold

COc1ccc(Nc2cc(-c3ccccc3)nc(C3CCOCC3)n2)cc1 [ARN22162, N-(4-methoxyphenyl)-6-phenyl-2-tetrahydropyran-4-yl-pyrimidin-4-amine]
dose response in SKM28 cell lines (SKMel28 melanoma cells): no dose response

CN(C)c1ccc(Nc2cc(-c3ccccc3)nc(C3CCOCC3)n2)cc1 [ARN22163, N4,N4-dimethyl-N1-(6-phenyl-2-tetrahydropyran-4-yl-pyrimidin-4-yl)benzene-1,4-diamine]
dose response in SKM28 cell lines (SKMel28 melanoma cells): no dose response

CCn1c(=O)c(-c2ccc(-c3cncs3)cc2Cl)cc2cnc(Nc3ccc(N4CCN(C)CC4)cc3)nc21 [FRAX597]
growth of A375 cells and blood vessels in VMT (A375 VMT): did not significantly inhibit

Cc1ccc(F)c(NC(=O)Nc2ccc(-c3cccc4[nH]nc(N)c34)cc2)c1 [linifanib]
vessel growth / angiogenesis in VMOs [4]: did inhibit angiogenesis
